In PubChem BioAssay (NCI) one finds GI50 and TGI data, which are given here for 21 molecules.

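Test compounds were applied to cells in 96-well plates for 48 hours at 5 doses. The concentration for 50% growth inhibition is given as GI50. TGI: total growth inhibition.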

Some test systems named below: TK-10 renal; M14 melanoma; HCT-15 colon; SN12C renal; OVCAR-3 ovarian; EKVX NSCLC; T-47D breast; RXF 393 renal; OVCAR-4 ovarian; UACC-62 melanoma.
Experiment in all cases: NCI-60 cell line screen, 48 h

Turning to `CN1CCN(Cc2ccc(NC(=O)c3cccc(C#Cc4cnc(N)c5ncccc45)c3F)cc2C(F)(F)F)CC1`, the GI50 was 5.67 µM in the test on TK-10 renal; 0.59 µM in the test on M14 melanoma; 0.546 µM with HCT-15 colon; 0.817 µM with SN12C renal; 5.07 µM in the test with OVCAR-3 ovarian; 6.57 µM in the test with EKVX NSCLC. Moreover, the GI50 in the test on T-47D breast is 5.78 µM; with RXF 393 renal, 0.613 µM; in the test on OVCAR-4 ovarian, 0.735 µM; in the test on UACC-62 melanoma, 2.84 µM. The TGI in the test on TK-10 renal was 12.9 µM; in the test on M14 melanoma it was 1.37 µM; in the test on HCT-15 colon, 1.35 µM; in the test with SN12C renal, 1.59 µM; in the test on OVCAR-3 ovarian it was 12 µM; in the test with EKVX NSCLC, 13.7 µM. Also, the TGI in the test on T-47D breast was 14.8 µM; in the test with RXF 393 renal it was 1.3 µM; in the test with OVCAR-4 ovarian it was 1.59 µM; with UACC-62 melanoma, 13.1 µM.
On to `O=C(O)CC(Sc1ccccc1)c1ccccc1` (stereo not given), for which the TGI in the test on TK-10 renal, in the test with M14 melanoma, in the test with HCT-15 colon, in the test with SN12C renal, with OVCAR-3 ovarian and in the test with EKVX NSCLC was above 100 µM throughout. Further, the TGI with T-47D breast, with RXF 393 renal, with OVCAR-4 ovarian and with UACC-62 melanoma was above 100 µM each time.
Take `CCOC(=O)C(C(=S)SC)c1nn2c(=O)cc(C)nc2s1` (stereo not given): the TGI is 61.9 µM in the test on TK-10 renal; 29.8 µM in the test on M14 melanoma; 35.3 µM with HCT-15 colon; 34.2 µM in the test with SN12C renal; 34.8 µM in the test with OVCAR-3 ovarian; 34.3 µM in the test on EKVX NSCLC. For the same molecule, the TGI in the test on T-47D breast turned out to be 42.6 µM; with RXF 393 renal, 39.8 µM; in the test with OVCAR-4 ovarian, 58.4 µM; with UACC-62 melanoma, 47.6 µM.
Regarding `CCOC(=O)c1c2c(c(O)c3ccccc3c(O)n(Cc3ccccc3)c1C)C(=O)C=CC2=O`, the TGI in the test with TK-10 renal, with M14 melanoma, in the test with HCT-15 colon, with SN12C renal, with OVCAR-3 ovarian and in the test with EKVX NSCLC was above 100 µM each time. Also, the TGI in the test on T-47D breast was above 100 µM; in the test with RXF 393 renal it was 75.9 µM; in the test with OVCAR-4 ovarian, above 100 µM; with UACC-62 melanoma, above 100 µM.
Take `Cc1ccc2nc(C=Nc3ccc(Cl)cc3)cc(C)c2c1`: the TGI with TK-10 renal was 57 µM; in the test with M14 melanoma, 21.1 µM; in the test on HCT-15 colon it was 0.4 µM; with SN12C renal it was 29.4 µM; with OVCAR-3 ovarian, 32.2 µM; with EKVX NSCLC, above 100 µM. Further, the TGI in the test with T-47D breast was 48.1 µM; in the test with RXF 393 renal it was 62.3 µM; in the test with OVCAR-4 ovarian it was above 83.1 µM; in the test on UACC-62 melanoma, 40 µM.
`C[N+](C)(C)CC(=O)N/N=C/c1ccncc1`: the TGI in the test on TK-10 renal, in the test with M14 melanoma, with HCT-15 colon, with SN12C renal, in the test with OVCAR-3 ovarian and in the test with EKVX NSCLC was above 100 µM throughout. The TGI in the test with T-47D breast, in the test with RXF 393 renal, in the test with OVCAR-4 ovarian and in the test on UACC-62 melanoma was above 100 µM each time.
Turning to `COc1cc2c(cc1OCCCCOc1cc3c(cc1OC)C(=O)N1CCC[C@H]1C(=O)N3)N=C[C@@H]1CCCN1C2=O`, the TGI in the test on TK-10 renal is 27.4 µM; with M14 melanoma, 33 µM; in the test on HCT-15 colon, 24.6 µM; in the test on SN12C renal, 21.4 µM; in the test on OVCAR-3 ovarian, 25.7 µM; with EKVX NSCLC it was 27.6 µM. Besides, the TGI with T-47D breast stood at 28.7 µM; in the test on RXF 393 renal it was 14.8 µM; with OVCAR-4 ovarian, 27.7 µM; in the test on UACC-62 melanoma, 10.3 µM.
On to `O=C(CCCl)NNC1=NCCCN1`, for which the TGI with TK-10 renal, in the test on M14 melanoma, with HCT-15 colon, in the test with SN12C renal, with OVCAR-3 ovarian and with EKVX NSCLC was above 100 µM throughout. Further, the TGI with T-47D breast, with RXF 393 renal, in the test with OVCAR-4 ovarian and with UACC-62 melanoma was above 100 µM in each case.
With `CSc1ccc(/C=C2\N=C(c3ccccc3)N(c3nc4cc(C)c(C)cc4s3)C2=O)cc1`, the TGI in the test with TK-10 renal is above 100 µM; with M14 melanoma, 75.8 µM; in the test on HCT-15 colon, above 100 µM; with SN12C renal it was 72.4 µM; in the test on OVCAR-3 ovarian, 77.4 µM; in the test with EKVX NSCLC it was 85.9 µM. The TGI is above 100 µM in the test on T-47D breast, 62.3 µM in the test on RXF 393 renal, above 100 µM with OVCAR-4 ovarian and above 100 µM in the test with UACC-62 melanoma.
On to `Cc1cc(S(=O)(=O)/N=C(/[N-]S(=O)(=O)c2ccc(Cl)cc2)[n+]2ccc(N(C)C)cc2)c(SCC(=O)O)cc1Cl`, for which the TGI with TK-10 renal, with M14 melanoma, in the test on HCT-15 colon, in the test with SN12C renal, in the test with OVCAR-3 ovarian and in the test on EKVX NSCLC was above 100 µM in each case. The TGI in the test on T-47D breast, in the test on RXF 393 renal, with OVCAR-4 ovarian and with UACC-62 melanoma was above 100 µM in each case.
As to `COc1ccc2nc3ccc(OC)cc3c(SCc3ccccc3)c2c1`, the TGI is above 100 µM with TK-10 renal; above 50 µM in the test on M14 melanoma; above 100 µM in the test with HCT-15 colon; above 100 µM with SN12C renal; above 100 µM in the test with OVCAR-3 ovarian; above 100 µM in the test on EKVX NSCLC. The TGI in the test with T-47D breast, in the test on RXF 393 renal, in the test with OVCAR-4 ovarian and with UACC-62 melanoma was above 100 µM throughout.
With `CCOc1cc2oc(C)cc(=O)c2c(OC)c1C=Nc1ccc(Cn2c(C)nc3ccccc32)cc1`, the TGI in the test with TK-10 renal, in the test with M14 melanoma, with HCT-15 colon, with SN12C renal, with OVCAR-3 ovarian and in the test on EKVX NSCLC was above 100 µM in each case. The TGI with T-47D breast, in the test on RXF 393 renal, in the test on OVCAR-4 ovarian and in the test on UACC-62 melanoma was above 100 µM in each case.
Take `COC1OC(COC(=O)c2cc(O)c(O)c(O)c2)C(OC(=O)c2cc(O)c(O)c(O)c2)C(OC(=O)c2cc(O)c(O)c(O)c2)C1OC(=O)c1cc(O)c(O)c(O)c1` (stereo not given): the TGI with TK-10 renal was above 100 µM; in the test on M14 melanoma, 26.8 µM; in the test with HCT-15 colon, above 100 µM; in the test with SN12C renal, above 100 µM; with OVCAR-3 ovarian, 77.7 µM; in the test on EKVX NSCLC it was above 100 µM. Besides, the TGI in the test on T-47D breast, in the test on RXF 393 renal, in the test with OVCAR-4 ovarian and in the test with UACC-62 melanoma was above 100 µM throughout.
`COc1ccc2[nH]c3c(C)c4ccnc(NCCCN(C)CCCNc5ccc6ncn7c8ccccc8c(=O)c5c67)c4c(C)c3c2c1`: the TGI worked out at 5.49 µM in the test on TK-10 renal; 2.48 µM in the test with M14 melanoma; 3.45 µM in the test with HCT-15 colon; 3.38 µM in the test with SN12C renal; 6.56 µM with OVCAR-3 ovarian; 2.48 µM in the test with EKVX NSCLC. Besides, the TGI in the test on T-47D breast was 9.46 µM; in the test on RXF 393 renal it was 0.623 µM; in the test on OVCAR-4 ovarian, 6.94 µM; with UACC-62 melanoma, 9.18 µM.
Consider `COc1cc(-c2[o+]c3cc(O)cc(O)c3cc2O)cc(O)c1O`, for which the TGI with TK-10 renal, in the test on M14 melanoma, in the test with HCT-15 colon, with SN12C renal, in the test on OVCAR-3 ovarian and in the test with EKVX NSCLC was above 100 µM throughout. The TGI in the test on T-47D breast, in the test with RXF 393 renal, with OVCAR-4 ovarian and with UACC-62 melanoma was above 100 µM in each case.
Consider `O=C(CSc1nc2ccc(I)cc2c(=O)n1Cc1ccccc1)NNC(=O)c1ccccc1`, for which the TGI in the test on TK-10 renal was 27.4 µM; in the test on M14 melanoma, above 100 µM; in the test on HCT-15 colon, above 100 µM; with SN12C renal, above 100 µM; with OVCAR-3 ovarian it was 90.4 µM; with EKVX NSCLC it was 17.9 µM. Further, the TGI was 30.5 µM in the test on T-47D breast, 17.5 µM in the test on RXF 393 renal, 57.4 µM in the test on OVCAR-4 ovarian and above 100 µM with UACC-62 melanoma.
`O=C(O)CCCc1ccc2ccccc2c1`: the TGI in the test with TK-10 renal, in the test on M14 melanoma, with HCT-15 colon, in the test on SN12C renal, in the test on OVCAR-3 ovarian and in the test with EKVX NSCLC was above 100 µM throughout. For the same molecule, the TGI with T-47D breast, with RXF 393 renal, in the test with OVCAR-4 ovarian and in the test with UACC-62 melanoma was above 100 µM in each case.
Regarding `Cc1cccc(-c2cc(=O)c3c(C)cc(C)nc3[nH]2)c1`, the TGI is above 100 µM with TK-10 renal; above 100 µM with M14 melanoma; above 56 µM with HCT-15 colon; above 100 µM with SN12C renal; 4.6 µM in the test on OVCAR-3 ovarian; above 100 µM with EKVX NSCLC. Also, the TGI with T-47D breast, in the test with RXF 393 renal, in the test on OVCAR-4 ovarian and in the test on UACC-62 melanoma was above 100 µM each time.
For `O=c1c2cc(Cl)cc(Cl)c2oc2nc3n(c(=O)c12)CCCS3`, the TGI with TK-10 renal, in the test on M14 melanoma, with HCT-15 colon, in the test with SN12C renal, in the test with OVCAR-3 ovarian and in the test on EKVX NSCLC was above 100 µM in each case. Moreover, the TGI in the test on T-47D breast, in the test on RXF 393 renal, in the test on OVCAR-4 ovarian and in the test on UACC-62 melanoma was above 100 µM throughout.
`CCOC1Oc2ccccc2-c2nc(SC)ncc21` (stereo not given): the TGI in the test with TK-10 renal, with M14 melanoma, in the test with HCT-15 colon, with SN12C renal, with OVCAR-3 ovarian and with EKVX NSCLC was above 100 µM throughout. In addition, the TGI with T-47D breast, in the test with RXF 393 renal, in the test with OVCAR-4 ovarian and in the test on UACC-62 melanoma was above 100 µM throughout.
For `c1ccc2c(c1)NC1(N3CCCCC3)CCCCC21` (stereo not given), the TGI with TK-10 renal, in the test on M14 melanoma, in the test on HCT-15 colon, in the test on SN12C renal, with OVCAR-3 ovarian and in the test with EKVX NSCLC was above 100 µM each time. For the same molecule, the TGI with T-47D breast is 78.1 µM; in the test on RXF 393 renal it was 80.2 µM; in the test on OVCAR-4 ovarian, above 100 µM; in the test on UACC-62 melanoma it was above 100 µM.
